In PMC13223490, “New Indazole Derivatives as Potential Scaffolds for the Development of Anticancer, Antiviral, and Anti-tuberculosis Chemotherapeutic Compounds” (Current Medicinal Chemistry, 2025):
In brackets after ≈: the same amount, converted by molar mass. Several values for one entry are separate records, joined by “and”; a condition that tells them apart may be missing. Equal values may be shown once. Entries after “also recorded” stand apart in the source; their conditions may differ. Where a name gives a salt, the structure may show the parent alone. Read-outs that look alike come from different tables or passages of the source.

Columns and labels:
[1] = test system: influenza virus A/California/7/2009 (H1N1)pdm09; experiment: microbe, parasite or virus in culture; type: cell-based, human influenza virus A; details: for SI (selectivity index): ratio of CD50 (CC50) to IC50, MDCK; for maximum reduction of the infectious titer: MDCK cell culture
[2] = Cytotoxic effect in MDCK cell culture (MTS); type: cell-based; details: dog
Procedure: (§1) Multiple dilutions of solutions of all compounds were prepared in 24-well plates by titration into 8 wells, starting from a dilution of 1:10 to 1:1280. The resulting serial dilutions were transferred to the wells of the test plates with cells. Each point was tested in 4 parallel wells. The working medium was added to the wells of the cell control. […] Then, the culture medium was removed from the plates, and 100 μL of the medium and 20 μL of the MTS solution were added to the cell culture monolayer in each well. After incubation for 3 hours at 37°C, the results were recorded on a BIO-RAD automatic reader at a wavelength of 490 nm. Reference filter - 630 nm.
(§2) To obtain statistically reliable results, the experiments were performed 2-3 times. The values of CC50 and IC50 were calculated using generally accepted methods for biological research, as implemented in the Microsoft Excel 5.0 and GraphPad Prism 6.01 software packages. The working model for CC50 analysis was a 4-parameter logistic curve equation (menu items “Nonlinear regression” - “Sigmoidal dose-response (variable slope)”). For IC50 analysis, a 4-parameter logistic curve equation was adopted (menu items “Nonlinear regression” - “log (inhibitor) vs. response (variable slope)”). Based on the obtained data, the selectivity index (SI) was calculated using the equation: SI = CC50/ IC50.

SARS-CoV-2 = experiment: microbe, parasite or virus in culture; type: cell-based; details: for IC50: Vero E6
HL60 leukemia cells = experiment: Cytotoxicity on tumor cell cultures (resazurin, 48 h); type: cell-based; details: HL60, 48 h
Procedure: (§3) The total well volume was 150 μl.

K562 leukemia cells = experiment: as above; type: cell-based; details: K562, 48 h
Procedure: as §3

[3] = test system: SH-SY5Y neuroblastoma cells; experiment: as above; type: cell-based
Procedure: as §3

[4] = test system: SH-SY5Y, K-562, HL-60, GBM5522 cells; experiment: Cytotoxicity screening, summary over the cancer cell panel; type: cell-based
Procedure: as §3
Cytotoxicity screening of the synthesized indazole derivatives was performed on the cell line of neuroblastoma SH-SY5Y, lymphoblastic cells K-562, promyeloblastic cells HL-60, low-passage variant of highly differentiated multiform glioblastoma GBM5522 (Table 2).

M. tuberculosis H37Rv = experiment: Bacteriostatic activity, proportion method, BACTEC MGIT 960, Middlebrook 7H9; type: cell-based, Mycobacterium tuberculosis; details: for MIC50: 50% inhibition of mycobacterial growth; for effect on growth of M. tuberculosis H37Rv culture, in words: up to the maximum tested concentration
[5] = test system: GBM5522 low-passage primary glioblastoma multiforme cells; experiment: Cytotoxicity on tumor cell cultures (resazurin, 48 h)
Procedure: The low-passage primary glioblastoma multiforme cell culture GBM5522 was previously described [37]. Cells were cultured in DMEM (Servicebio) containing 10% fetal bovine serum (FBS) at 37°C in an atmosphere of 5% CO2. The cells were plated in 96-well plates at a density of 1x10^4 cells/well. The test substances were then added in concentrations ranging from 0.8 to 100 μM. DMSO at a concentration of 1% was used as a control, corresponding to the percentage of DMSO when the highest concentration of the drug was added. The total well volume was 150 μl. The cells were incubated for 48 hours at 37°C in a 5% CO2 atmosphere. Resazurin was added in a concentration of 10 μl of a 0.5 mg/mL solution in phosphate-buffered saline. The incubation was carried out under the same conditions for 4 hours, and then the fluorescence level was measured at an excitation wavelength of 560 nm and an emission wavelength of 590 nm using a CLARIOstar multimodal microplate reader (BMG Labtech, Germany). The data obtained for each concentration were normalized to the control, and the IC50 was calculated using the nonlinear regression method. The minimum number of repetitions for each concentration was three. The GraphPad Prism software v.9.5.1 (GraphPad Software, San Diego, USA) was used to calculate the IC50 and plot the percentage of living cells versus the concentration of the drug.

mycobacteria = test system: mycobacteria; design: method as in PMID 27704782; details: growth of mycobacteria; cited from earlier work
M. tuberculosis [6] = test system: M. tuberculosis; design: method as in PMID 37111241; details: cited from earlier work
M. tuberculosis [7] = details: cited from earlier work
MDCK cells = experiment: Cytotoxic effect in MDCK cell culture (MTS); type: cell-based; details: MDCK; concentration reducing the cell number by 50%
Procedure: as §1, §2

[8] = test system: continuous leukemia cell lines; design: method as in PMID 28587395, PMID 11531262; details: read-out: half-maximal effective concentrations; cited from earlier work
mouse = mouse model studies; cited from earlier work
in vivo = type: in vivo, mice; details: both sexes, white outbred, mouse, in vivo, po; mice, single intragastric administration, day 14
Source text: (§4) The toxicity of the compound was studied according to published procedure in compliance with the guidelines.
(§5) In this regard, one representative of the group, lead compound 8, was studied for acute toxicity in […] mice. White outbred mice of both sexes, weighing 25-30 g and aged 12-13 weeks, were used as biomodels. The animals were obtained from the nursery of the Federal State Unitary Enterprise «Research Institute for Hygiene, Toxicology and Occupational Pathology» of the Federal Medical and Biological Agency of Russia. The total number of animals was 20 heads. The experimental and control groups consisted of 4 animals with an equal number of males and females.
(§6) The toxic effect of the specified substance was studied using the described procedure. The substance was administered intragastrically using an atraumatic metal probe at a rate of 0.05 mL per 10 g of body weight in a dose range from 20 mg/kg to 80 mg/kg. Control animals received the solvent (99% DMSO) in the same volume in a similar way.
(§7) After the substance was administered, the animals were continuously observed for 4 hours, then periodically for 14 days, recording clinical manifestations of intoxication and the fact of death, after which lethal doses were calculated.
(§8) Dead animals were autopsied as soon as possible after death, macroscopic manifestations of the effect of the test compound were noted, and internal organs were collected for subsequent histological examination as described earlier.
(§9) Lethal doses were calculated using the probit analysis method, as described by D.J. Finney, in Microsoft Excel 2013 on the 14th day of the experiment.

white outbred mice = experiment: in vivo; type: in vivo
Source text: as §4, §5, §6, §7, §8, §9

[9] = Severe acute respiratory syndrome coronavirus 2, Vero C1008
[10] = Mycobacterium tuberculosis, H37RV, 75% inhibition of mycobacterial growth
[11] = Mycobacterium tuberculosis, H37RV, read-out: MIC 50
[12] = 75% inhibition of mycobacterial growth
[13] = mice, single intragastric administration, day 14

| Compound | Δlgmax [1] | IC50 ([1]; H1N1, MDCK) [µM] | SI (selectivity index) [1] | CC50 at 66 h [2] [µM] | Δlgmax (SARS-CoV-2) | IC50 (SARS-CoV-2; [9]) [µM] | IC50 (HL60 leukemia cells; Homo sapiens, HL-60) [µM] | IC50 (K562 leukemia cells; Homo sapiens) [µM] | IC50 ([3]; Homo sapiens) [µM] | MIC50 (M. tuberculosis H37Rv; [11]) | IC50 ([5]; 48 h) [µM] | other results |
| --- | --- | --- | --- | --- | --- | --- | --- | --- | --- | --- | --- | --- |
| c1ncc(-c2ccc3[nH]ncc3c2)cn1 [Compound 9, 5-(pyrimidin-5-yl)-1H-indazole] | 1.0 | > 100 | <10 | 1050 | 0 | > 50 | > 100 | > 100 | > 100 | 40 µg/mL and 204 µM | > 100 | cytotoxicity in words [4]: inactive; MIC (M. tuberculosis H37Rv; [10]): 40 µg/mL and 204 µM; effect on growth of M. tuberculosis H37Rv culture, in words (M. tuberculosis H37Rv): best antibacterial activity |
| c1cc2[nH]ncc2cc1-c1cn[nH]c1 [Compound 7, 5-(1H-pyrazol-4-yl)-1H-indazole] | 0 | > 20 | <5 | 100 | 0.25 | > 50 | 23.7 ± 5 | 24.4 ± 3.1 | 15.5 ± 5.3 | 40 µg/mL and 217 µM | 36.8 ± 2 | MIC (M. tuberculosis H37Rv; [10]): 60 µg/mL and 326 µM |
| Cc1n[nH]c(C)c1S(=O)(=O)Nc1ccc2cn[nH]c2c1 [Compound 4, N-(1H-indazol-6-yl)-3,5-dimethyl-1H-pyrazole-4-sulfonamide] | – | – | – | – | – | – | – | – | – | – | – | MIC (mycobacteria): 2 µM (≈ 0.583 µg/mL) |
| c1ncc(-c2ccc3cn[nH]c3c2)cn1 [Compound 11, 6-(pyrimidin-5-yl)-1H-indazole] | 0.5 | > 200 | <5 | 1120 | 0 | > 200 | > 100 | > 100 | > 100 | 60 µg/mL and 306 µM | > 100 | cytotoxicity in words [4]: inactive |
| O=C(N/N=C/c1ccc2c[nH]nc2c1)c1ccncc1 [Compound 5] | – | – | – | – | – | – | – | – | – | – | – | MIC (M. tuberculosis [6]): 0.11 µM (≈ 0.0292 µg/mL) |
| NNC(=O)c1ccncc1 [isoniazid] | – | – | – | – | – | – | – | – | – | – | – | MIC (M. tuberculosis [6]): 0.36 µM (≈ 0.0494 µg/mL); critical concentration (M. tuberculosis [7]; control drugs): 1 μg/mL and 0.73 µM |
| 6-(cyclopenten-1-en-1-yl)-1H-indazole [Compound 12] | 0.25 | – | – | – | 0.5 | – | – | – | – | – | – | IC50 ([1]; read-out: IC50): > 2 µM; CC50 (MDCK cells): 4 µM; IC50 (SARS-CoV-2): > 3 µM; IC50 (HL60 leukemia cells): > 100 µM; IC50 (K562 leukemia cells): 22.3 ± 4.3 µM; IC50 [3]: > 100 µM; cytotoxicity in words ([4]; cancer cell lines panel): inactive; MIC50 (M. tuberculosis H37Rv): 40 µg/mL; MIC50 (M. tuberculosis H37Rv; read-out: MIC 50): 217 µM; MIC (M. tuberculosis H37Rv; [12]): 217 µM; MIC 75 (M. tuberculosis H37Rv; [12]): 40 µg/mL; effect on growth of M. tuberculosis H37Rv culture, in words (M. tuberculosis H37Rv): best antibacterial activity; IC50 ([5]; GBM5522, 48 h): > 100 µM |
| CO[C@H]1/C=C/O[C@@]2(C)Oc3c(C)c(O)c4c(O)c(c(/C=N/N5CCN(C)CC5)c(O)c4c3C2=O)NC(=O)/C(C)=C\C=C\[C@H](C)[C@H](O)[C@@H](C)[C@@H](O)[C@@H](C)[C@H](OC(C)=O)[C@@H]1C [rifampicin] | – | – | – | – | – | – | – | – | – | – | – | critical concentration (M. tuberculosis [7]; control drugs): 0.5 μg/mL and 0.61 µM |
| c1cncc(-c2ccc3[nH]ncc3c2)c1 [Compound 10, 5-(pyridin-3-yl)-1H-indazole] | 1.5 | 25 | 24,4 | 610 | 0.75 | > 25 | > 100 | 5.5 ± 1.5 | 14.3 ± 5 | – | 95.4 ± 5.2 | maximum reduction of the infectious titer [1]: 1.5 logTCID50; effect on growth of M. tuberculosis H37Rv culture, in words (M. tuberculosis H37Rv): did not affect the growth; also recorded: completely devoid of the ability to suppress the growth of mycobacteria |
| NC(=O)c1cnccn1 [pyrazinamide] | – | – | – | – | – | – | – | – | – | – | – | critical concentration (M. tuberculosis [7]): 100 μg/mL and 812 µM |
| COc1cc([C@@H]2c3cc4c(cc3[C@@H](O[C@@H]3O[C@@H]5CO[C@@H](C)O[C@H]5[C@H](O)[C@H]3O)[C@H]3COC(=O)[C@H]23)OCO4)cc(OC)c1O [etoposide] | – | – | – | – | – | – | – | – | – | – | – | EC50 [8]: 10 to 100 µM; nonlethal doses (mouse): ~ 50 mg/kg |
| CCOC(=O)C1=C[C@@H](OC(CC)CC)[C@H](NC(C)=O)[C@@H](N)C1 [Oseltamivir, (3R,4R,5S)-4-acetamido-5-amino-3-(1-ethylpropo-xy)-1-cyclohexene-1-carboxylic acid ethyl ester phosphate salt, reference compound] | 6.0 | 0.61 | – | 820 | – | – | – | – | – | – | – | – |
| c1cc2cn[nH]c2cc1-c1cn[nH]c1 [Compound 8, 6-(1H-pyrazol-4-yl)-1H-indazole] | 2.0 | 6 | 55 | 330 | 0.75 | > 6 | 9.9 ± 0.8 | 6.7 ± 0.8 | 4.2 ± 0.9 | 40 µg/mL and 217 µM | 13.8 ± 1.1 | maximum reduction of the infectious titer [1]: 2.0 logTCID50; cytotoxicity in words [4]: significant cytotoxicity; IC50 ([4]; SH-SY5Y, K-562, HL-60, GBM5522, read-out: IC50 range over cancer cell lines): 4 to 14 µM; MIC (M. tuberculosis H37Rv; [10]): 60 µg/mL and 326 µM; LD50 (in vivo): 40 mg/kg; Number of Animals in the Group/Number of Dead (white outbred mice; 20 mg/kg intragastric): 4/0; Number of Animals in the Group/Number of Dead (white outbred mice; 40 mg/kg intragastric): 4/2; Number of Animals in the Group/Number of Dead (white outbred mice; 50 mg/kg intragastric): 4/3; necropsy findings (white outbred mice; 80 mg/kg and 50 mg/kg, dead animals): uncoagulated blood was found in the heart, pulmonary hyperemia was present, and blood was observed in the chest; Number of Animals in the Group/Number of Dead (white outbred mice; 80 mg/kg intragastric): 4/4; pathomorphological examination (white outbred mice; 80 mg/kg, male mouse): focal hemorrhages in the gastric mucosa and pronounced swelling and edema of the submucosal layer; clinical picture of intoxication (white outbred mice; lethal doses, first day after administration): convulsions, dysfunction of the hind limbs, increasing hypodynamia; LD10 (white outbred mice; [13]): 26,2 mg/kg; LD16 (white outbred mice; [13]): 28,8 mg/kg; LD84 (white outbred mice; [13]): 55,6 mg/kg |
